The term Kd denotes the constant that tells how readily two partners part at equilibrium. In general, IC50 refers to the concentration that inhibits the measured activity by half.

For series [1], the target named is T1, P450 1B1 (Homo sapiens, UniProt Q16678).
T1 sequence (Q16678 1-543): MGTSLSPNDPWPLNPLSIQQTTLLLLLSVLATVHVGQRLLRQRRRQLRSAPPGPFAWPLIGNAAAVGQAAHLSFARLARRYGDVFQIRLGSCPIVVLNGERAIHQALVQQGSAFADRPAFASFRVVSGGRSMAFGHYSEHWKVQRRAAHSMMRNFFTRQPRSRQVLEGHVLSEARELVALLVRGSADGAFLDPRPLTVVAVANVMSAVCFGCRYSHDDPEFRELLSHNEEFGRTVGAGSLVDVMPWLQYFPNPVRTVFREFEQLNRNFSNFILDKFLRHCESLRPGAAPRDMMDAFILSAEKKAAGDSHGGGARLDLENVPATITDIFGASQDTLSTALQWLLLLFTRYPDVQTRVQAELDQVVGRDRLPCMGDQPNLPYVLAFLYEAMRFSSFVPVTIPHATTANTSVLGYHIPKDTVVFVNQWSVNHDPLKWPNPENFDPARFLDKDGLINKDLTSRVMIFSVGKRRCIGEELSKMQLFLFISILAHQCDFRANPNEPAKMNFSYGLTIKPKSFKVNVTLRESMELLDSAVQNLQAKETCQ
Briefly: Spectral binding titrations with purified P450 1B1. The note with it: for ΔAmax (ΔA~416-A~383) / wavelengths (peak/trough): 1 μM P450 1B1; for ΔAmax (ΔA~416-A~383): means ± S.E.; for wavelengths (peak/trough): pH 7.4.

The target in series [2] is T1, P450 1B1. Nature of the series: Inhibition of P450 1B1-dependent 7-ethoxyresorufin O-deethylation. The note with it: for course of EROD Km values during the incubation: direct inhibitors; for IC50: means and SE.
Series [3] deals with T1, P450 1B1. Nature of the series: Quenching of P450 1B1. The note with it: extrapolated % quenching; 1.0 μM P450 1B1. The class given is binding.
Series [4] has as its target T1, P450 1B1.
Series [5] deals with T1, P450 1B1. Briefly: Quenching of PAH. The note with it: for interaction with P450 1B1 (quenching of inhibitor fluorescence): inhibitors at 10 nM.
[6] abbreviates: inhibition of EROD activity IC50, 15 s of incubation time (direct and direct/restore inhibitors).

Read-outs that look alike come from different tables or passages of the source.

On to `C#Cc1ccc2ccccc2c1` [2EN, 2-ethynylnaphthalene], for which, on P450 1B1 [1], binding was put at a Kd of 15000 ± 8000 nM, the “ΔAmax / Ks” value was 0.003, the “ΔAmax (ΔA~416-A~383)” value was 0.049 ± 0.038 and the “wavelengths (peak/trough)” value was 415/383. Besides, at P450 1B1 [2], the “course of EROD Km values during the incubation” value (“course” below) is “increased throughout the incubation period”. Moreover, the IC50 against P450 1B1 [2] (setting [6]) was 190000 ± 16000 nM.

`C#Cc1cc2ccc3cccc4ccc(c1)c2c34` [2EP, 2-ethynylpyrene]: at P450 1B1 [3], the “PAH binding to P450 1B1 Bmax” value is recorded as 69 ± 3%. Further, on P450 1B1 [1], the affinity, expressed as Kd, was 3400 ± 500 nM; the “ΔAmax (ΔA~416-A~383)” value is listed as 0.071 ± 0.005; the “wavelengths (peak/trough)” value is 416/387. In addition, the “course” value on P450 1B1 [2] is “increased throughout the incubation period”. At P450 1B1 [2] (setting [6]), the IC50 amounted to 110 ± 20 nM. Besides, the “ΔAmax / Ks” value on P450 1B1 [4] came to 0.021. Further, the Kd on P450 1B1 [5] is 1.9 to 18 nM.

For the compound `C#Cc1ccc2c(ccc3ccccc32)c1` [2EPh, 2-ethynylphenanthrene], on P450 1B1 [3], the “PAH binding to P450 1B1 Bmax” value was 62 ± 4%. At P450 1B1 [1], the Kd is 4200 ± 1300 nM, the “ΔAmax (ΔA~416-A~383)” value worked out at 0.080 ± 0.013 and the “wavelengths (peak/trough)” value was 414/383. Also, on P450 1B1 [2], the “course” value is “increased throughout the incubation period”. In addition, the IC50 on P450 1B1 [2] (setting [6]) was 130 ± 21 nM. Also, the “ΔAmax / Ks” value at P450 1B1 [4] amounted to 0.020. For the same compound, the Kd on P450 1B1 [5] fell in the range of 1.9 to 18 nM.

As for `CC#Cc1ccc2c(ccc3ccccc32)c1` [2PPh, 2-(1-propynyl)phenanthrene], the “PAH binding to P450 1B1 Bmax” value at P450 1B1 [3] is recorded as 77 ± 5%. Moreover, on P450 1B1 [1], the Kd worked out at 2200 ± 100 nM, the “ΔAmax (ΔA~416-A~383)” value is 0.067 ± 0.001 and the “wavelengths (peak/trough)” value is listed as 415/383. This compound displayed an IC50 at P450 1B1 [2] (setting [6]) of 100 ± 12 nM. Besides, on P450 1B1 [4], the “ΔAmax / Ks” value is given as 0.030. For the same compound, at P450 1B1 [5], the Kd fell in the range of 1.9 to 18 nM.

With `C#Cc1ccc2ccc3ccccc3c2c1` [3EPh, 3-ethynylphenanthrene], the “PAH binding to P450 1B1 Bmax” value at P450 1B1 [3] is on record as 108 ± 22%. On P450 1B1 [1], binding was put at a Kd of 3000 ± 400 nM, the “ΔAmax (ΔA~416-A~383)” value came out at 0.071 ± 0.004 and the “wavelengths (peak/trough)” value was 414/383. Moreover, the “type of spectral change with P450 1B1” value on P450 1B1 [1] (difference spectra) is “reverse type I”. Besides, it took 110 ± 16 nM to reach half-maximal inhibition at P450 1B1 [2] (setting [6]) (IC50). Further, at P450 1B1 [4], the “ΔAmax / Ks” value was 0.024.

For `Cc1ccc2cc3c(ccc4ccccc43)c3c2c1CC3` [3MC, 3-methylcholanthrene], the “PAH binding to P450 1B1 Bmax” value at P450 1B1 [3] is reported as 105 ± 6%. The same compound gave an IC50 against P450 1B1 [2] (setting [6]) of 14 ± 2 nM. Also, the “interaction with P450 1B1 (quenching of inhibitor fluorescence)” value on P450 1B1 [5] is recorded as “not found”.

On to `C#Cc1cc2cccc3ccc4cccc1c4c32` [4EP, 4-ethynylpyrene], for which the “PAH binding to P450 1B1 Bmax” value on P450 1B1 [3] was 67 ± 3%. Moreover, on P450 1B1 [1], the Kd is 4000 ± 900 nM, the “ΔAmax (ΔA~416-A~383)” value was determined as 0.052 ± 0.006 and the “wavelengths (peak/trough)” value was 416/383. For the same compound, at P450 1B1 [2] (setting [6]), 250 ± 20 nM corresponded to half-maximal inhibition (IC50). The “ΔAmax / Ks” value on P450 1B1 [4] is reported as 0.013. Moreover, at P450 1B1 [5], the Kd lay in the range of 1.9 to 18 nM.

Regarding `C#Cc1ccc(-c2ccccc2)cc1` [4Ebi, 4-ethynylbiphenyl], at P450 1B1 [1], the Kd was determined as 7600 ± 1200 nM, the “ΔAmax / Ks” value stood at 0.003, the “ΔAmax (ΔA~416-A~383)” value is 0.023 ± 0.002 and the “wavelengths (peak/trough)” value is listed as 416/383. Also, the “course” value on P450 1B1 [2] was “increased throughout the incubation period”. On P450 1B1 [2] (setting [6]), this compound had an IC50 of 3300 ± 500 nM.

Turning to `CC#Cc1ccc(-c2ccccc2)cc1` [4Pbi, 4-(1-propynyl)biphenyl], on P450 1B1 [1], binding was characterised by a dissociation constant (Kd) of 12000 ± 5000 nM, the “ΔAmax / Ks” value is recorded as 0.005, the “ΔAmax (ΔA~416-A~383)” value stood at 0.074 ± 0.022 and the “wavelengths (peak/trough)” value is 415/386. Moreover, the IC50 against P450 1B1 [2] (inhibition of EROD activity IC50, 6 min of incubation time (mechanism-based inhibitor)) was found to be 17000 ± 2000 nM.

Consider `Cc1cc2ccccc2c2ccc3ccccc3c12` [5MeCh, 5-methylchrysene], for which, at P450 1B1 [3], the “PAH binding to P450 1B1 Bmax” value is 83 ± 5%. The compound also had an IC50 at P450 1B1 [2] (setting [6]) of 8 ± 1 nM. For the same compound, the “interaction with P450 1B1 (quenching of inhibitor fluorescence)” value at P450 1B1 [5] is “not found”.

For the compound `C#Cc1cc2ccccc2c2ccccc12` [9EPh, 9-ethynylphenanthrene], at P450 1B1 [3], the “PAH binding to P450 1B1 Bmax” value is 52 ± 3%. Also, at P450 1B1 [1], the dissociation constant Kd is 3600 ± 1000 nM, the “ΔAmax (ΔA~416-A~383)” value worked out at 0.071 ± 0.010 and the “wavelengths (peak/trough)” value is 415/383. Besides, the “course” value on P450 1B1 [2] is given as “increased throughout the incubation period”. The half-inhibitory concentration (IC50) at P450 1B1 [2] (setting [6]) is 140 ± 18 nM. The “ΔAmax / Ks” value on P450 1B1 [4] was 0.020.

Regarding `CC#Cc1cc2ccccc2c2ccccc12` [9PPh, 9-(1-propynyl)phenanthrene], the “PAH binding to P450 1B1 Bmax” value at P450 1B1 [3] is 61 ± 3%. In addition, at P450 1B1 [1], the Kd came to 3200 ± 300 nM, the “ΔAmax (ΔA~416-A~383)” value was found to be 0.049 ± 0.002 and the “wavelengths (peak/trough)” value is recorded as 416/383. Further, the “course” value at P450 1B1 [2] is on record as “increased throughout the incubation period”. Besides, the concentration for half-maximal inhibition (IC50) against P450 1B1 [2] (setting [6]) worked out at 110 ± 21 nM. Moreover, the “ΔAmax / Ks” value on P450 1B1 [4] is given as 0.015.

With `c1ccc2cc3c(ccc4ccccc43)cc2c1` [B[a]A, benz[a]anthracene], at P450 1B1 [3], the “PAH binding to P450 1B1 Bmax” value was 46 ± 1%. The IC50 on P450 1B1 [2] (read-out: inhibition of EROD activity IC50, 15 s of incubation time (direct and direct/restore inhibitors)) stood at 9 ± 1 nM.

In the case of `c1ccc2c(c1)c1cccc3ccc4cccc2c4c31` [B[e]P, benzo[e]pyrene], the “PAH binding to P450 1B1 Bmax” value on P450 1B1 [3] is 100 ± 6%. The midpoint of inhibition at P450 1B1 [2] (setting [6]), the IC50, lay at 17 ± 2 nM. In addition, the “interaction with P450 1B1 (quenching of inhibitor fluorescence)” value on P450 1B1 [5] is reported as “not found”.

Compound `c1ccc2c3c(ccc2c1)-c1cccc2cccc-3c12` [B[j]FA, benzo[j]fluoranthene] came in with an IC50 against P450 1B1 [2] (setting [6]) of 44 ± 6 nM.

`c1ccc2c(c1)ccc1nc3ccc4ccccc4c3cc12` [DB[a,j]Ac, dibenz[a,j]acridine]: the midpoint of inhibition at P450 1B1 [2] (setting [6]), the IC50, lay at 15 ± 2 nM. This compound also gave a Kd on P450 1B1 [5] of 14 nM.

With `Cc1c2ccccc2c(C)c2c1ccc1ccccc12` [DMBA, 7,12-dimethylbenz[a]anthracene], the “PAH binding to P450 1B1 Bmax” value on P450 1B1 [3] was 62 ± 1%. At P450 1B1 [2] (setting [6]), this compound returned an IC50 of 300 ± 33 nM.

Consider `c1ccc2c(c1)ccc1c3ccccc3ccc21` [chrysene], for which the “PAH binding to P450 1B1 Bmax” value at P450 1B1 [3] is given as 84 ± 6%. The compound also registered an IC50 on P450 1B1 [2] (setting [6]) of 92 ± 11 nM. On P450 1B1 [5], the “interaction with P450 1B1 (quenching of inhibitor fluorescence)” value is on record as “not found”.

The record behind these values is paper PMC2772130 (Chemical research in toxicology, 2008).
